No end group written: not given here.
These compounds were tested on bradykinin response of isolated guinea pig ileum (assay: Anti-bradykinin activity on isolated guinea pig ileum). Conditions: Table 1; higher numbers indicate higher potency.
Description: (§1) In general, Anti-bradykinin activity was determined by the classical guinea pig ileum assay and on Chinese hamster ovary (CHO) cells expressing cloned human bradykinin B2 receptors. Anti-tumor activity was determined on cultured human cancer cell lines using the standard tetrazolium (MTT) assay.
Male Hartley guinea pigs that had been deprived of food overnight were sacrificed, and sections of terminal ileum, 25 mm in length, were dissected, attached to tissue holders and immersed in 10 ml tissue baths containing Krebs' solution bubbled with 95% O2/5% CO2. Tissues were placed under 1 g tension and incubated for 1 h equilibration. Concentration-effect curves were constructed to bradykinin in the absence and presence of new compounds.

| Compound | GPI: pA2 for bradykinin antagonist activity on isolated guinea pig ileum |
| --- | --- |
| Dcg-2Nal-Arg [M10] | 4.8 |
| Ac-PaF(Dcg)-p-ABz-Arg [M146-2] | 4.9 |
| F5c-p-Amb-APa-Arg [M352] | 4.7 |
| DDD-(DArg-hPhe-Arg)2 [M554] | 5.1 |
| Dcg-Apa-Arg [M78] | 5.6 |
| Aaa-DIgl-hPhe-Arg [M772] | 4.9 |
| ε-SUB-(Lys-DArg-Arg-Eac-Ser-DF5F-Nc7G-Arg)2 [M1038] | 6.4 |
| F5c-APb-Arg [M372] | 4.6 |
| Dcg-Gly-Cmp-Arg [M124] | 4.7 |
| Aaa-DArg-Arg-Pro-Hyp-Gly-(D,L)DMF-Ser-DTic-Oic-Arg [B9126-2] | 7.3 |
| F5c-Lys(F5bz)-Arg [M682] | 4.9 |
| Dcg-Trx-Arg [M134] | 4.9 |
| Dhq-DArg-Arg-Pro-Hyp-Gly-CpG-Ser-DCpG-CpG-Arg [B9074] | 6.3 |
| Dcg-2-Nal-Atpc-Arg [M232-3] | 5.1 |
| Dcg-BtA-Arg [M68] | 4.9 |
| Ac-PaF(Mcg)-p-ABz-Arg [M146-1] | Inact |
| Gun-Eac-DIgl-Oic-Arg [M42] | 5.0 |
| DArg-Arg-NMF-Hyp-Gly-Thi-Ser-DIgl-Oic-Arg [B9966] | 6.9 |
| N=C(N)NCCCC(NC(=O)C=Cc1c(F)c(F)c(F)c(F)c1F)C(=O)O (stereo not shown) [M370, F5c-Arg] | 4.8 |
| DArg-Arg-Pro-Hyp-Gly-CpG-Ser-DCpG-CpG-Arg [B8838] | 7.0 |
| Gun-2-Nal-Arg [M20] | 4.6 |
| DArg-Arg-Pro-Hyp-Gly-Thi-Ser-DTic-Nc6G-Arg [B10014] | 7.6 |
| F5c-Dpr(Paa)-Arg [M690] | 4.8 |
| Mcg-Pac-Gly-m-ABz-2-Nal-Arg [M200-1] | Inact |
| Arg-Eac-DIgl-Ana-Arg [M406] | Inact |
| Aaa-DTic-hPhe-Arg [M764] | 4.8 |
| F5c-Tyr-Arg [M380] | Inact |

Same assay, conditions: guinea pig ileum

| Compound | pD2 of bradykinin on ileum |
| --- | --- |
| RPPGFSPFR [BK, reference compound] | 7.4 |

Same assay, conditions: isolated guinea pig ileum; pD2 of bradykinin is 7.4; higher numbers indicate higher potency

| Compound | GPI: pA2 for bradykinin antagonist activity on isolated guinea pig ileum |
| --- | --- |
| O=C(O)C(Cc1cccnc1)NC(=O)C(Cc1ccc2ccccc2c1)NC(=NC1CCCCC1)NC1CCCCC1 (stereo not shown) [M104] | 4.9 |
| O=C(O)c1ccc(NC(=O)C(Cc2ccc3ccccc3c2)NC(=NC2CCCCC2)NC2CCCCC2)cc1 (stereo not shown) [M120] | 4.7 |
| O=C(O)c1cccc(NC(=O)C(Cc2ccc3ccccc3c2)NC(=NC2CCCCC2)NC2CCCCC2)c1 (stereo not shown) [M112] | 5.1 |
| O=C(Cc1ccc(NC(=NC2CCCCC2)NC2CCCCC2)cc1)Nc1cccc(C(=O)O)c1 [M122-2] | 4.6 |
| O=C(C[C@H](NC(=O)[C@H](Cc1ccc2ccccc2c1)NC(=NC1CCCCC1)NC1CCCCC1)C(=O)O)NC1CN2CCC1CC2 (stereo partly shown) [M188B] | 5.5 |
| N=C(Nc1ccc(CC(=O)Nc2cccc(C(=O)O)c2)cc1)NC1CCCCC1 [M122-1] | 5.0 |
| CC1(C)CC(NC(=O)C(CC(=O)O)NC(=O)Cc2ccc(NC(=O)C=Cc3c(F)c(F)c(F)c(F)c3F)cc2)CC(C)(C)N1 (stereo not shown) [M364] | 4.7 |
| CC1(C)CC(NC(=O)C(CC(=O)O)NC(=O)C(Cc2ccc3ccccc3c2)NC(=NC2CCCCC2)NC2CCCCC2)CC(C)(C)N1 (stereo not shown) [M342] | 5.4 |
| O=C(O)CC(NC(=NC1CCCCC1)NC1CCCCC1)C(=O)NC1CN2CCC1CC2 (stereo not shown) [M174] | Inact |
| N=C(N)Nc1ccc(CC(NC(=O)C(Cc2ccc3ccccc3c2)NC(=NC2CCCCC2)NC2CCCCC2)C(=O)O)cc1 (stereo not shown) [M354] | 5.2 |
| O=C(O)c1cc(NC(=O)C(Cc2ccc3ccccc3c2)NC(=NC2CCCCC2)NC2CCCCC2)cc(NC(=NC2CCCCC2)NC2CCCCC2)c1 (stereo not shown) [M92-4] | 5.0 |
| O=C(C=Cc1ccc(NC(=NC2CCCCC2)NC2CCCCC2)cc1)NCC(=O)Nc1cccc(C(=O)NC(Cc2ccc3ccccc3c2)C(=O)O)c1 (stereo not shown) [M340] | 4.8 |
| O=C(O)CC(NC(=O)C(Cc1ccc2ccccc2c1)NC(=NC1CCCCC1)NC1CCCCC1)C(=O)NC1CN2CCC1CC2 (single isomer, unassigned) [M336-2] | 5.4 |
| N=C(N)NC(Cc1ccc2ccccc2c1)C(=O)Nc1ccc(CC(=O)O)cc1 (stereo not shown) [M32] | 4.8 |
| N=C(Nc1ccc(CC(NC(=O)c2ccc3ccccc3c2)C(=O)O)cc1)NC1CCCCC1 (stereo not shown) [M168-1] | 4.8 |
| COc1cc(C=CC(=O)NC(Cc2c(F)c(F)c(F)c(F)c2F)C(=O)NC(Cc2cccnc2)C(=O)O)cc(OC)c1O (stereo not shown) [M136] | Inact |
| O=C(O)Cc1ccc(NC(=O)C(Cc2ccc3ccccc3c2)NC(=NC2CCCCC2)NC2CCCCC2)cc1 (stereo not shown) [M30] | 5.4 |

Each compound was assayed on SCLC strain SHP-77 (assay: Colorimetric tetrazolium (MTT) assay for cell survival, SCLC strain SHP-77). Conditions: SCLC strain SHP-77 in vitro.
Type: cell-based, human
Description: as §1
Cell growth and survival were measured by a rapid colorimetric assay based on the tetrazolium salt MTT (3-(4,5-dimethylthiazol-2-yl)-2,5-diphenyl tetrazolium bromide) (Mosmann, J Immunol. Methods 65: 55–63, 1983, with minor modifications). Briefly, 1,000 normal lung fibroblasts or normal epithelial BEAS-2B cells, 1,000 or 5,000 viable non-SCLC cells or 10,000 viable SCLC cells were plated in 100 μL of growth medium in 96-well flat-bottomed microtiter plates. Cells were incubated overnight to allow recovery. Compounds to be tested were added to the cells in triplicate in a range of concentrations and the cells were incubated at 37° C., 5% CO2, with 100% humidity. Control cells were treated in the same way without antagonists. […] Plates were incubated for 4 days, allowing sufficient time for cell replication and compound-induced cell death to occur. On day 5, 25 μL of a 2 mg/mL solution of MTT (Sigma) dissolved in RMPI-1640was added to each well. The plate was incubated for 4 h at 37° C. The supernate was removed and the blue formazan complex was dissolved by adding 100 μL of 0.02 N HCl in 75% isopropanol to all wells. Absorbance was immediately determined using a scanning multiwell plate reader. B9870 caused 50% cell death at a concentration of 0.15 μM under these conditions.

| Compound | MTT: ED50 for killing of SCLC strain SHP-77 in vitro [µM] |
| --- | --- |
| CN(C)c1ccc(CNC(=O)C(Cc2ccc(OCc3c(Cl)cccc3Cl)cc2)NC(=O)C=Cc2c(F)c(F)c(F)c(F)c2F)cc1 (stereo not shown) [M798] | 37 |
| CC1(C)CC(NC(=O)C(Cc2ccc3ccccc3c2)NC(=O)CCCCCNC(=O)c2cc(C(=O)NCCCCCC(=O)NC(Cc3ccc4ccccc4c3)C(=O)NC3CC(C)(C)NC(C)(C)C3)cc(C(=O)NCCCCCC(=O)NC(Cc3ccc4ccccc4c3)C(=O)NC3CC(C)(C)NC(C)(C)C3)c2)CC(C)(C)N1 (stereo not shown) [M290-2] | 20 |

Same assay, conditions: Table 1; SHP-77, MTT, 4 days

| Compound | MTT: ED50 for killing of SCLC strain SHP-77 in vitro |
| --- | --- |
| Dca-hPhe-Arg [M542] | 80 µM |
| F5bz-F5F-Arg [M132] | 60 µM |
| Aaa-DArg-Arg-Eac-Ser-D5F5-Oic-Arg [M954] | 10 µM |
| α-DDD-(K-DArg-Arg-Eac-Ser-DF5F-Oic-Arg)2 [M950] | 6.7 µM |
| DDD-(DArg-Arg-Eac-Ser-DF5F-PFF-Arg)2 [M944] | 6.7 µM |
| Ppa-PFF-Arg [M814] | Inact |
| Pac-hPhe-Arg [M752-2] | Inact |
| F5c-PCF-Arg [M714] | Inact |

Same assay, conditions: Table 3, cyclic peptides

| Compound | MTT: ED50 for killing of SCLC strain SHP-77 in vitro |
| --- | --- |
| c[DArg-Arg Add-DIgl-PFF-Arg] [M878] | 7 µM |
| α-DDD-(c[Lys-DArg-Arg-Pro-Hyp-Gly-Thi-Ser-DF5F-Oic-Arg])2 [B10312] | 3.8 µM |
| c[Arg-DNMF-DTrp-Phe-DTrp-Leu] [B10306] | Inact |

From patent US7071168B2, “Anti-cancer compounds and methods related thereto” (The Regents of the University of Colorado, priority 1998, dated 2006)
